The target of assay [1] is T1, full length human TREX1 (Homo sapiens, UniProt Q9NSU2).
T1 construct: N-terminally His-Tev tagged full length human TREX1; made in house; host or cells: E. coli
T1 sequence (Q9NSU2 1-314): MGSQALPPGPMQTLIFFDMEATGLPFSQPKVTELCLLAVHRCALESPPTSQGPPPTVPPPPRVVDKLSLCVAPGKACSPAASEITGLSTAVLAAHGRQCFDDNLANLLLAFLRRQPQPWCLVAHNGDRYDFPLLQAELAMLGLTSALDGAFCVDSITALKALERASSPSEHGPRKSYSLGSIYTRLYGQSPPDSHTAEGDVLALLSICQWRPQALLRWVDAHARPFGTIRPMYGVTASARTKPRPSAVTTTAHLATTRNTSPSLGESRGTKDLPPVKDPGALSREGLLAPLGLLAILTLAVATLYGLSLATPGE
Kind of assay: TREX1 Biochemical Assay (fluorescence, dsDNA substrate degradation). To be noted: 150 pM TREX1, 60 nM dsDNA substrate, 25 minutes at room temperature. How it is done: Degradation of the dsDNA liberates free fluorophore to produce a fluorescent signal. Specifically, 7.5 μL of N-terminally His-Tev tagged full length human TREX1 (expressed in E. coli and purified in house) in reaction buffer (50 mM Tris (pH 7.4), 150 mM NaCl, 2 mM DTT, 0.1 mg/mL BSA, 0.01% (v/v) Tween-20 and 100 mM MgCl2) was added to a 384-well Black ProxiPlate Plus (Perkin Elmer) which already contained compound (150 nL) at varying concentrations as a 10 point dose-response in DMSO. To this was added 7.5 μL of dsDNA substrate (Strand A: 5′ TEX615/GCT AGG CAG 3′; Strand B: 5′ CTG CCT AGC/IAbRQSp (Integrated DNA Technologies)) in reaction buffer. Final concentrations were 150 pM TREX1, 60 nM dsDNA substrate in reaction buffer with 1.0% DMSO (v/v). After 25 minutes at room temperature, reactions were quenched by the addition of 5 μL of stop buffer (same as reaction buffer plus 200 mM EDTA). Final concentrations in the quenched reaction were 112.5 pM TREX1, 45 nM DNA and 50 mM EDTA in a volume of 20 μL. After a 5-minute incubation at room temperature, plates were read in a laser sourced Envision (Perkin-Elmer), measuring fluorescence at 615 nm following excitation w/570 nm light. IC50 values were calculated by comparing the measured fluorescence at 615 nm ratio relative to control wells pre-quenched w/stop buffer (100% inhibition) and no inhibitor (0% inhibition) controls as using non-linear least square four parameter fits and either Genedata or GraphPad Prism (GraphPad Software, Inc.).

Assay [2] addresses T2, human TREX2 (residues M44-A279) (Homo sapiens, UniProt Q9BQ50).
T2 construct: human TREX2 (residues M44-A279, expressed in E. coli); made in house; host or cells: E. coli
T2 sequence (Q9BQ50 44-279 isoform Q9BQ50-1): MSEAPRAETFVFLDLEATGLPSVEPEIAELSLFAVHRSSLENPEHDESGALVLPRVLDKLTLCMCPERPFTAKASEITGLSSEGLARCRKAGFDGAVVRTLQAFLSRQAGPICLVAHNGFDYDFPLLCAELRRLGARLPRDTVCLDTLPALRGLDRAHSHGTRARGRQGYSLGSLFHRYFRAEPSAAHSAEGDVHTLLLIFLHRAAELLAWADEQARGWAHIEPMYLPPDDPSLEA
Kind of assay: TREX2 Biochemical Assay (fluorescence, dsDNA substrate degradation). To be noted: 2.5 nM TREX2, 60 nM dsDNA substrate, 25 minutes at room temperature. The protocol:
Degradation of the dsDNA liberates free fluorophore to produce a fluorescent signal. Specifically, 7.5 μL of N-terminally His-Tev tagged human TREX2 (residues M44-A279, expressed in E. coli and purified in house) in reaction buffer (50 mM Tris (pH 7.4), 150 mM NaCl, 2 mM DTT, 0.1 mg/mL BSA, 0.01% (v/v) Tween-20 and 100 mM MgCl2) was added to a 384-well Black ProxiPlate Plus (Perkin Elmer) which already contained compound (150 nL) at varying concentrations as a 10 point dose-response in DMSO. To this was added 7.5 μL of dsDNA substrate (Strand A: 5′ TEX615/GCT AGG CAG 3′; Strand B: 5′ CTG CCT AGC/IAbRQSp (IDT)) in reaction buffer. Final concentrations were 2.5 nM TREX2, 60 nM dsDNA substrate in reaction buffer with 1.0% DMSO (v/v). After 25 minutes at room temperature, reactions were quenched by the addition of 5 μL of stop buffer (same as reaction buffer plus 200 mM EDTA). Final concentrations in the quenched reaction mixture were […] TREX2, 45 nM DNA and 50 mM EDTA in a volume of 20 μL. After a 5-minute incubation at room temperature, plates were read in a laser sourced Envision (Perkin-Elmer), measuring fluorescence at 615 nm following excitation w/570 nm light. IC50 values were calculated by comparing the measured fluorescence at 615 nm ratio relative to control wells pre-quenched w/stop buffer (100% inhibition) and no inhibitor (0% inhibition) controls as using non-linear least square four parameter fits and either Genedata or GraphPad Prism (GraphPad Software, Inc.).

The IC50 is the point on the concentration scale where inhibition reaches its midpoint. Higher therefore signals weaker potency. For `CN(c1nc(C(=O)Nc2ccc(F)cc2)c(O)c(=O)n1C)C(c1ccccc1)c1ccccc1` [Example 18, 2-(benzhydryl(methyl)amino)-N-(4-fluorophenyl)-5-hydroxy-1-methyl-6-oxo-1,6-dihydropyrimidine-4-carboxamide], the concentration for half-maximal inhibition (IC50) in assay [1] was 0.1 to 1 µM; in assay [2] it was under 1 µM.
The like results for `CN(c1nc(C(=O)Nc2cc(F)cc(F)c2)c(O)c(=O)n1C)C(c1ccccc1)c1ccccc1` [Example 21, 2-(benzhydryl(methyl)amino)-N-(3,5-difluorophenyl)-5-hydroxy-1-methyl-6-oxo-1,6-dihydropyrimidine-4-carboxamide] were, in that order, 0.1 to 1 µM and under 1 µM.
For `CN(c1nc(C(=O)Nc2ccon2)c(O)c(=O)n1C)C(c1ccccc1)c1ccccc1` [Example 39, 2-(benzhydryl(methyl)amino)-5-hydroxy-N-(isoxazol-3-yl)-1-methyl-6-oxo-1,6-dihydropyrimidine-4-carboxamide] the same measures were 0.1 to 1 µM and 10 to 100 µM.
With `CN(c1nc(C(=O)NC2COC2)c(O)c(=O)n1C)C(c1ccccc1)c1ccccc1` [Example 9, 2-(benzhydryl(methyl)amino)-5-hydroxy-1-methyl-N-(oxetan-3-yl)-6-oxo-1,6-dihydropyrimidine-4-carboxamide], the IC50 in assay [1] is over 10 µM; in assay [2], 10 to 100 µM.
For `COCCNC(=O)c1nc(N(C)C(c2ccccc2)c2ccccc2)n(C)c(=O)c1O` [Example 11, 2-(benzhydryl(methyl)amino)-5-hydroxy-N-(2-methoxyethyl)-1-methyl-6-oxo-1,6-dihydropyrimidine-4-carboxamide] the same measures were over 10 µM and 10 to 100 µM.
For `CCNC(=O)c1nc(N(C)C(c2ccccc2)c2ccccc2)n(C)c(=O)c1O` [Example 10, 2-(benzhydryl(methyl)amino)-N-ethyl-5-hydroxy-1-methyl-6-oxo-1,6-dihydropyrimidine-4-carboxamide] the same measures were 1 to 10 µM and 10 to 100 µM.
For `CN(c1nc(C(=O)N[C@H]2CCOC2)c(O)c(=O)n1C)C(c1ccccc1)c1ccccc1` [Example 3, (S)-2-(benzhydryl(methyl)amino)-5-hydroxy-1-methyl-6-oxo-N-(tetrahydrofuran-3-yl)-1,6-dihydropyrimidine-4-carboxamide] the same measures were over 10 µM and 10 to 100 µM.
As for `CN(c1nc(C(=O)Nc2cncnc2)c(O)c(=O)n1C)C(c1ccccc1)c1ccccc1` [Example 26, 2-(benzhydryl(methyl)amino)-5-hydroxy-1-methyl-6-oxo-N-(pyrimidin-5-yl)-1,6-dihydropyrimidine-4-carboxamide], the IC50 in assay [1] and in assay [2] was 1 to 10 µM each time.
Turning to `CN(c1nc(C(=O)N[C@@H]2CCOC2)c(O)c(=O)n1C)C(c1ccccc1)c1ccccc1` [Example 4, (R)-2-(benzhydryl(methyl)amino)-5-hydroxy-1-methyl-6-oxo-N-(tetrahydrofuran-3-yl)-1,6-dihydropyrimidine-4-carboxamide], the IC50 was over 10 µM in assay [1] and 10 to 100 µM in assay [2].
The like results for `CN(c1nc(C(=O)Nc2cccc(F)c2F)c(O)c(=O)n1C)C(c1ccccc1)c1ccccc1` [Example 22, 2-(benzhydryl(methyl)amino)-N-(2,3-difluorophenyl)-5-hydroxy-1-methyl-6-oxo-1,6-dihydropyrimidine-4-carboxamide] were, in that order, under 0.1 µM and under 1 µM.
The like results for `CN(c1nc(C(=O)Nc2ccnn2C)c(O)c(=O)n1C)C(c1ccccc1)c1ccccc1` [Example 35, 2-(benzhydryl(methyl)amino)-5-hydroxy-1-methyl-N-(1-methyl-1H-pyrazol-5-yl)-6-oxo-1,6-dihydropyrimidine-4-carboxamide] were, in that order, 1 to 10 µM and 10 to 100 µM.
For `CN(c1nc(C(=O)NC2CCC2)c(O)c(=O)n1C)C(c1ccccc1)c1ccccc1` [Example 7, 2-(benzhydryl(methyl)amino)-N-cyclobutyl-5-hydroxy-1-methyl-6-oxo-1,6-dihydropyrimidine-4-carboxamide] the same measures were 1 to 10 µM and 10 to 100 µM.
For the compound `CNC(=O)c1nc(N(C)C(c2ccccc2)c2ccccc2)n(C)c(=O)c1O` [Example 12, 2-(benzhydryl(methyl)amino)-5-hydroxy-N,1-dimethyl-6-oxo-1,6-dihydropyrimidine-4-carboxamide], the IC50 was over 10 µM in assay [1] and 10 to 100 µM in assay [2].
The like results for `Cc1oncc1NC(=O)c1nc(N(C)C(c2ccccc2)c2ccccc2)n(C)c(=O)c1O` [Example 36, 2-(benzhydryl(methyl)amino)-5-hydroxy-1-methyl-N-(5-methylisoxazol-4-yl)-6-oxo-1,6-dihydropyrimidine-4-carboxamide] were, in that order, 0.1 to 1 µM and 1 to 10 µM.
For `CN(c1nc(C(=O)NC2CC=CC2)c(O)c(=O)n1C)C(c1ccccc1)c1ccccc1` [Example 6, 2-(benzhydryl(methyl)amino)-N-(cyclopent-3-en-1-yl)-5-hydroxy-1-methyl-6-oxo-1,6-dihydropyrimidine-4-carboxamide] the same measures were 1 to 10 µM and 10 to 100 µM.
The like results for `CN(c1nc(C(=O)Nc2ccc(C(F)(F)F)cc2)c(O)c(=O)n1C)C(c1ccccc1)c1ccccc1` [Example 28, 2-(benzhydryl(methyl)amino)-5-hydroxy-1-methyl-6-oxo-N-(4-(trifluoromethyl)phenyl)-1,6-dihydropyrimidine-4-carboxamide] were, in that order, over 10 µM and 10 to 100 µM.
In the case of `CN(c1nc(C(=O)Nc2c(F)cccc2F)c(O)c(=O)n1C)C(c1ccccc1)c1ccccc1` [Example 19, 2-(benzhydryl(methyl)amino)-N-(2,6-difluorophenyl)-5-hydroxy-1-methyl-6-oxo-1,6-dihydropyrimidine-4-carboxamide], the results for the 50% inhibitory concentration (IC50) in assay [1] and in assay [2] were 1 to 10 µM and 10 to 100 µM, respectively.
The like results for `Cc1onc(NC(=O)c2nc(N(C)C(c3ccccc3)c3ccccc3)n(C)c(=O)c2O)c1C` [Example 37, 2-(benzhydryl(methyl)amino)-N-(4,5-dimethylisoxazol-3-yl)-5-hydroxy-1-methyl-6-oxo-1,6-dihydropyrimidine-4-carboxamide] were, in that order, 1 to 10 µM and 10 to 100 µM.
On to `CN(c1nc(C(=O)Nc2ccccn2)c(O)c(=O)n1C)C(c1ccccc1)c1ccccc1` [Example 25, 2-(benzhydryl(methyl)amino)-5-hydroxy-1-methyl-6-oxo-N-(pyridin-2-yl)-1,6-dihydropyrimidine-4-carboxamide], for which the IC50 is 0.1 to 1 µM in assay [1] and under 1 µM in assay [2].

These data come from patent publication US20230167070A1, “MODULATORS OF TREX1” (Constellation Pharmaceuticals, Inc., priority 2020, published 2023).
